IC50 data for 23 compounds are collected here from patent US10875875B2, “Propionic acid derivatives and methods of use thereof” (Aviara Pharmaceuticals, Inc., priority 2017, dated 2020).

In the assay the target is α4β1 (Homo sapiens, UniProt P05556+P13612). In words: α4β1 integrin inhibition, IC50. It is filed as binding. The following applies: read-out: α4β1 IC50.

Bounds are passed on as bounds.

Chain of α4β1 (P13612 34-1032): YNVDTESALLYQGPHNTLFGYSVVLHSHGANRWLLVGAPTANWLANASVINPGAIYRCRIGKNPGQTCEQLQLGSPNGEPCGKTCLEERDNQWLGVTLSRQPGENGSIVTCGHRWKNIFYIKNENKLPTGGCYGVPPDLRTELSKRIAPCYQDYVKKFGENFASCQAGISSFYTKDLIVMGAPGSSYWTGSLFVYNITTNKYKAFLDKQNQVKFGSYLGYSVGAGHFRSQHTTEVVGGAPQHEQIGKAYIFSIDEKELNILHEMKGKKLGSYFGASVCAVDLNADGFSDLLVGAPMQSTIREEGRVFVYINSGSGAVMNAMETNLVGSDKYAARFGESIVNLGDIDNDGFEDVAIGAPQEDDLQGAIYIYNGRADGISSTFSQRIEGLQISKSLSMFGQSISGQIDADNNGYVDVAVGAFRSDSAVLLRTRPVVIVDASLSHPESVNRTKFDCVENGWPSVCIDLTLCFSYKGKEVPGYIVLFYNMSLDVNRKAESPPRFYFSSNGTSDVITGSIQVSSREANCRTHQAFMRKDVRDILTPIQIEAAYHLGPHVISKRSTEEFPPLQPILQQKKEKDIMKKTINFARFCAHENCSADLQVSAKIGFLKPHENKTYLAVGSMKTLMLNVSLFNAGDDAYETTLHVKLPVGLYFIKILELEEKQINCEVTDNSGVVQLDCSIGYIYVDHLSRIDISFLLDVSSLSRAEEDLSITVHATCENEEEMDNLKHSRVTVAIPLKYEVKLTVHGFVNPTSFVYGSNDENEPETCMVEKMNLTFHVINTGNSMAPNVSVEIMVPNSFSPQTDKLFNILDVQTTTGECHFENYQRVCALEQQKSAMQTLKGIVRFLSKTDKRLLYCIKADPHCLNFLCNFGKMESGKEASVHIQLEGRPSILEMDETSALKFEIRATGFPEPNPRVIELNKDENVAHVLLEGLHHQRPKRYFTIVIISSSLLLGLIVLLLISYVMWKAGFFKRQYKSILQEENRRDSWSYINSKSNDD
Chain of α4β1 (P05556 21-798): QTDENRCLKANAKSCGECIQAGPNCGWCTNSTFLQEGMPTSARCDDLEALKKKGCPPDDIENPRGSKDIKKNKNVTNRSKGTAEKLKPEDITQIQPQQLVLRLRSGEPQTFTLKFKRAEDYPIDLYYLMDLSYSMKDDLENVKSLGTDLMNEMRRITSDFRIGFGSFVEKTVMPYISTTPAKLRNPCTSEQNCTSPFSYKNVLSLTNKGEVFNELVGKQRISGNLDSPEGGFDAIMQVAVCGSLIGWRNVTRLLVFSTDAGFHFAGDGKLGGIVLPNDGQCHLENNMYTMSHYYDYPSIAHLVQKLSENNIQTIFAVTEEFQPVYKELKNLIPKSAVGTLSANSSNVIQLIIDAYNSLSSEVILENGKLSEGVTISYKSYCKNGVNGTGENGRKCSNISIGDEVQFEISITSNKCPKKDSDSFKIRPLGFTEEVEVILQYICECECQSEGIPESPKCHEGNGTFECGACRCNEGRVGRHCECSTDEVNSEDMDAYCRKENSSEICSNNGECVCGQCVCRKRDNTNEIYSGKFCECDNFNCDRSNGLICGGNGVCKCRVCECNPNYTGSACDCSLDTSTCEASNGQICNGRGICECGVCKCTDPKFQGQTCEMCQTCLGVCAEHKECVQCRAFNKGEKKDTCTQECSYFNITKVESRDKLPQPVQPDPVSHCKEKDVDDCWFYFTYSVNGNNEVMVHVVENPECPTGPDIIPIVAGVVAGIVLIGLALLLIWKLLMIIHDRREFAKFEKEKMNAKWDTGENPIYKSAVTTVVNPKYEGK

In the case of `Cc1ccc([C@H](CC(=O)O)NC(=O)Nc2c(O)ccn(C)c2=O)cc1-c1ccc(F)cc1F` [1-541, sodium (S)-3-(2′,4′-difluoro-6-methylbiphenyl-3-yl)-3-(3-(1-methyl-4-oxido-2-oxo-1,2-dihydropyridin-3-yl)ureido)propanoate], the IC50 is less than 20 nM.
As for `Cn1ccc(O)c(NC(=O)N[C@@H](CC(=O)O)c2cccc(-c3ccccn3)c2)c1=O` [1-639, sodium (S)-3-(3-(1-methyl-4-oxido-2-oxo-1,2-dihydropyridin-3-yl)ureido)-3-(3-(pyridin-2-yl)phenyl)propanoate], the IC50 is less than 20 nM.
To `Cn1ccc(O)c(NC(=O)N[C@@H](CC(=O)O)c2cccc(-c3nccs3)c2)c1=O` [1-630, sodium (S)-3-(3-(1-methyl-4-oxido-2-oxo-1,2-dihydropyridin-3-yl)ureido)-3-(3-(thiazol-2-yl)phenyl)propanoate] belongs less than 20 nM.
As to `Cn1ccc(O)c(NC(=O)N[C@@H](CC(=O)O)c2cc(F)cc(-c3cccc(OC(F)(F)F)c3)c2)c1=O` [1-607, sodium (S)-3-(5-fluoro-3′-(trifluoromethoxy)biphenyl-3-yl)-3-(3-(1-methyl-4-oxido-2-oxo-1,2-dihydropyridin-3-yl)ureido)propanoate], the IC50 is less than 20 nM.
In the case of `Cn1c(=O)c(NC(=O)N[C@@H](CC(=O)O)c2cccc(-c3ccc(F)cc3F)c2)c(O)c2cccnc21` [1-526, sodium (S)-3-(2′,4′-difluorobiphenyl-3-yl)-3-(3-(1-methyl-4-oxido-2-oxo-1,2-dihydro-1,8-naphthyridin-3-yl)ureido)propanoate], the IC50 is less than 200 nM.
Take `COc1cccc(-c2cc([C@H](CC(=O)O)NC(=O)Nc3c(O)ccn(C)c3=O)ccc2C)c1` [1-542, sodium (S)-3-(3′-methoxy-6-methylbiphenyl-3-yl)-3-(3-(1-methyl-4-oxido-2-oxo-1,2-dihydropyridin-3-yl)ureido)propanoate]: the IC50 is less than 20 nM.
For `Cc1cn(C)c(=O)c(NC(=O)N[C@@H](CC(=O)O)c2cccc(-c3ccccc3F)c2)c1O` [1-441, sodium (S)-3-(3-(1,5-dimethyl-4-oxido-2-oxo-1,2-dihydropyridin-3-yl)ureido)-3-(2′-fluorobiphenyl-3-yl)propanoate], the IC50 was less than 20 nM.
With `Cc1cn(C)c(=O)c(NC(=O)N[C@@H](CC(=O)O)c2cccc(-c3cccc(F)c3)c2)c1O` [1-465, sodium (S)-3-(3-(1,5-dimethyl-4-oxido-2-oxo-1,2-dihydropyridin-3-yl)ureido)-3-(3′-fluorobiphenyl-3-yl)propanoate], the IC50 was less than 20 nM.
With `Cn1ccc(O)c(NC(=O)N[C@@H](CC(=O)O)c2cc(-c3ccc(F)cc3F)ccc2F)c1=O` [1-591, sodium (S)-3-(3-(1-methyl-4-oxido-2-oxo-1,2-dihydropyridin-3-yl)ureido)-3-(2′,4,4′-trifluorobiphenyl-3-yl)propanoate], the concentration for half-maximal inhibition (IC50) was less than 20 nM.
For the compound `Cc1cc(-c2c(C)cccc2C)cc([C@H](CC(=O)O)NC(=O)Nc2c(O)cc(C)n(C)c2=O)c1` [1-597, sodium (S)-3-(3-(1,6-dimethyl-4-oxido-2-oxo-1,2-dihydropyridin-3-yl)ureido)-3-(2′,5,6′-trimethylbiphenyl-3-yl)propanoate], the IC50 was less than 20 nM.
With `COc1cccc(-c2cc([C@H](CC(=O)O)NC(=O)Nc3c(O)ccn(C)c3=O)ccc2OC)c1` [1-524, sodium (S)-3-(3′,6-dimethoxybiphenyl-3-yl)-3-(3-(1-methyl-4-oxido-2-oxo-1,2-dihydropyridin-3-yl)ureido)propanoate], the IC50 is less than 20 nM.
With `Cn1c(=O)c(NC(=O)N[C@@H](CC(=O)O)c2cccc(-c3ccc(F)cc3F)c2)c(O)c2sccc21` [1-515, sodium (S)-3-(2′,4′-difluorobiphenyl-3-yl)-3-(3-(4-methyl-7-oxido-5-oxo-4,5-dihydrothieno[3,2-b]pyridin-6-yl)ureido)propanoate], the IC50 was less than 20 nM.
As to `Cn1ccc(O)c(NC(=O)N[C@@H](CC(=O)O)c2ccc(-c3cccc(Cl)c3)s2)c1=O` [1-619, sodium (S)-3-(5-(3-chlorophenyl)thiophen-2-yl)-3-(3-(1-methyl-4-oxido-2-oxo-1,2-dihydropyridin-3-yl)ureido)propanoate], the IC50 is less than 200 nM.
Turning to `Cc1cccc(-c2cccc([C@H](CC(=O)O)NC(=O)Nc3c(O)c(C)cn(C)c3=O)c2)c1` [1-451, sodium (S)-3-(3-(1,5-dimethyl-4-oxido-2-oxo-1,2-dihydropyridin-3-yl)ureido)-3-(3′-methylbiphenyl-3-yl)propanoate], the IC50 was less than 200 nM.
On to `Cc1cn(C)c(=O)c(NC(=O)N[C@@H](CC(=O)O)c2ccc(-c3ccccc3)o2)c1O` [1-482, sodium (S)-3-(3-(1,5-dimethyl-4-oxido-2-oxo-1,2-dihydropyridin-3-yl)ureido)-3-(5-phenylfuran-2-yl)propanoate], for which the IC50 was less than 200 nM.
In the case of `Cn1ccc(O)c(NC(=O)N[C@@H](CC(=O)O)c2ccc(-c3cc(F)ccc3F)s2)c1=O` [1-614, sodium (S)-3-(5-(2,5-difluorophenyl)thiophen-2-yl)-3-(3-(1-methyl-4-oxido-2-oxo-1,2-dihydropyridin-3-yl)ureido)propanoate], the half-inhibitory concentration (IC50) was less than 20 nM.
On to `Cn1ccc(O)c(NC(=O)N[C@@H](CC(=O)O)c2ccc(-c3ccc(F)cc3F)cc2)c1=O` [1-621, sodium (S)-3-(2′,4′-difluorobiphenyl-4-yl)-3-(3-(1-methyl-4-oxido-2-oxo-1,2-dihydropyridin-3-yl)ureido)propanoate], for which the 50% inhibitory concentration (IC50) was less than 20 nM.
As for `Cc1cn(C)c(=O)c(NC(=O)N[C@@H](CC(=O)O)c2cccc(-c3ccccc3OC(F)(F)F)c2)c1O` [1-467, sodium (S)-3-(3-(1,5-dimethyl-4-oxido-2-oxo-1,2-dihydropyridin-3-yl)ureido)-3-(2′-(trifluoromethoxy)biphenyl-3-yl)propanoate], the IC50 was less than 200 nM.
Turning to `Cc1ccc(-c2cccc([C@H](CC(=O)O)NC(=O)Nc3c(O)c(C)cn(C)c3=O)c2)cc1` [1-450, sodium (S)-3-(3-(1,5-dimethyl-4-oxido-2-oxo-1,2-dihydropyridin-3-yl)ureido)-3-(4′-methylbiphenyl-3-yl)propanoate], the IC50 was less than 200 nM.
With `Cn1ccc(O)c(NC(=O)N[C@@H](CC(=O)O)c2cccc(-c3ccc4c(c3)OCO4)c2)c1=O` [1-516, sodium (S)-3-(3-(benzo[d][1,3]dioxol-5-yl)phenyl)-3-(3-(1-methyl-4-oxido-2-oxo-1,2-dihydropyridin-3-yl)ureido)propanoate], the IC50 is less than 20 nM.
On to `CCn1cc(C)c(O)c(NC(=O)NC(CC(=O)O)c2cccc(-c3ccc(Cl)c(Cl)c3)c2)c1=O` (centres unmarked) [1-480, sodium 3-(3′,4′-dichlorobiphenyl-3-yl)-3-(3-(1-ethyl-5-methyl-4-oxido-2-oxo-1,2-dihydropyridin-3-yl)ureido)propanoate], for which the IC50 is less than 200 nM.
For the compound `Cc1cn(C)c(=O)c(NC(=O)NC(CC(=O)O)c2cccc(-c3cncnc3)c2)c1O` (centres unmarked) [1-478, sodium 3-(3-(1,5-dimethyl-4-oxido-2-oxo-1,2-dihydropyridin-3-yl)ureido)-3-(3-(pyrimidin-5-yl)phenyl)propanoate], the IC50 is less than 200 nM.
In the case of `COc1ccc(-c2cccc([C@H](CC(=O)O)NC(=O)Nc3c(O)ccn(C)c3=O)c2)nn1` [1-640, sodium (S)-3-(3-(6-methoxypyridazin-3-yl)phenyl)-3-(3-(1-methyl-4-oxido-2-oxo-1,2-dihydropyridin-3-yl)ureido)propanoate], the IC50 was less than 20 nM.

By IC50 is commonly meant the midpoint of a concentration-inhibition curve.
